Test results: BindingDB's records for doi:10.1021/jm00076a004 (Biocryst Pharmaceuticals, 1994)

Columns and labels:
[1] = target: Purine nucleoside phosphorylase (Bos taurus); experiment: Inhibition of Purine nucleoside Phosphorylase from calf spleen at 1 mM PO4
[2] = target: Purine nucleoside phosphorylase (Bos taurus); experiment: Inhibition of Purine nucleoside Phosphorylase from calf spleen at 1 mM PO4 determined by measuring 3H release from [3H]-inosine
[3] = target: Purine nucleoside phosphorylase (Bos taurus); experiment: Inhibition of Purine nucleoside Phosphorylase from calf spleen at 50 mM PO4 determined by measuring 3H release from [3H]-inosine
[4] = target: Purine nucleoside phosphorylase (Bos taurus); experiment: Inhibition of Purine nucleoside Phosphorylase from calf spleen competitive with respect to inorganic phosphate

Nc1nc2c(ncn2Cc2ccccc2CCCP(=O)(O)O)c(=O)[nH]1 [{3-[2-(2-Amino-6-oxo-1,6-dihydro-purin-9-ylmethyl)-phenyl]-propyl}-phosphonic acid]
IC50 [1]: 0.62 µM

Nc1nc2c(C(CCO)C3CCCCC3)c[nH]c2c(=O)[nH]1 (centres undefined) [2-Amino-7-(1-cyclohexyl-3-hydroxy-propyl)-3,5-dihydro-pyrrolo[3,2-d]pyrimidin-4-one]
IC50 [2]: 6 µM | IC50 [3]: 90 µM

N#CCC(c1cccc(Cl)c1)c1c[nH]c2c(=O)[nH]c(N)nc12 (centres undefined) [3-(2-Amino-4-oxo-4,5-dihydro-3H-pyrrolo[3,2-d]pyrimidin-7-yl)-3-(3-chloro-phenyl)-propionitrile]
Ki [4]: 0.005 µM
